Experimental data reported in patent US9624238B2, “4H-thieno[3,2-C]chromene-based inhibitors of Notum Pectinacetylesterase and methods of their use” (Lexicon Pharmaceuticals, Inc., priority 2011, dated 2017).

What was measured:
[1] = target: T1, human notum pectinacetyltransferase (Homo sapiens, UniProt Q6P988); assay: Binding assay (OPTS esterase substrate, fluorimetric); type: biochemical
T1 construct: made in house; unpurified conditioned medium used
T1 sequence (Q6P988 20-496): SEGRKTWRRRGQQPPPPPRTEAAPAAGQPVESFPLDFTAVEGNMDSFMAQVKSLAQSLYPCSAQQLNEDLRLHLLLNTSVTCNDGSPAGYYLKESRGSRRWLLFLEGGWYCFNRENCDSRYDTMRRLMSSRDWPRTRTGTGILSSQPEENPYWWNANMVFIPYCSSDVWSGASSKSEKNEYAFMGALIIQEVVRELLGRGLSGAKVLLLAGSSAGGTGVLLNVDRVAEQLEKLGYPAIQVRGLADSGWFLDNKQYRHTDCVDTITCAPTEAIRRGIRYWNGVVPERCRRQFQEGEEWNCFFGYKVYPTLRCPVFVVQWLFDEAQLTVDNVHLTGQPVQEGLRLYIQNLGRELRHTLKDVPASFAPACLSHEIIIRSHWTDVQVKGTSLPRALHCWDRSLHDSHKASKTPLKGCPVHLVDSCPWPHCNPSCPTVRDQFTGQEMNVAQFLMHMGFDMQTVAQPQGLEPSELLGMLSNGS
Description: Plasmid containing human notum pectinacetyltransferase in pcDNA3.1(+) vector was transfected into HEK (293 cells and clones were selecting by growing in presence of 400 ug/mL of G418. Condition media from these cells was used for the assay.

[2] = target: T1, human notum pectinacetyltransferase; assay: Reporter assay (CellSensor LEF/TCF-bla FreeStyle 293F cells, Wnt3a and notum conditioned media); type: cell-based
[3] = given as numeric bound above the legend's highest class
[4] = given as a numeric bound above the legend's range

## O=C(O)c1cc2c(s1)-c1ccccc1S(=O)(=O)CC2
[1]; [3]
  IC50: > 2000 nM
[2]; class symbols
  EC50: < 1000 nM

## O=C(O)c1cc2c(s1)-c1ccccc1SCC2
[1]; [3]
  IC50: > 2000 nM
[2]; class symbols
  EC50: < 100 nM

## COc1cccc2c1OCc1cc(C(=O)O)sc1-2
[1]; [4]
  IC50: > 2000 nM
[2]; class symbols
  EC50: < 500 nM

## COc1cccc2c1S(=O)(=O)Cc1cc(C(=O)O)sc1-2
[1]; [4]
  IC50: > 2000 nM
[2]; class symbols
  EC50: < 1000 nM

## COc1cccc2c1CCc1cc(C(=O)O)sc1-2
[1]; [3]
  IC50: > 2000 nM
[2]; class symbols
  EC50: < 50 nM

## Cc1ccc(C)c2c1-c1sc(C(=O)O)cc1CS2(=O)=O
[1]; [4]
  IC50: > 2000 nM
[2]; class symbols
  EC50: < 500 nM

## Cc1ccc(C)c2c1SCc1cc(C(=O)O)sc1-2
[1]; [4]
  IC50: > 2000 nM
[2]; class symbols
  EC50: < 50 nM

## COC(C)(C)CNC(=O)c1cc2c(s1)-c1ccc(Cl)c(F)c1OC2
[1]; [3]
  IC50: > 2000 nM
[2]; class symbols
  EC50: < 500 nM

## O=C(NCCN1CCOCC1)c1cc2c(s1)-c1ccc(Cl)c(F)c1OC2
[1]; [3]
  IC50: > 2000 nM
[2]; class symbols
  EC50: < 500 nM

## N#Cc1ccc2c(c1)OCc1cc(C(N)=O)sc1-2
[1]; [4]
  IC50: > 2000 nM
[2]; [4]
  EC50: > 1000 nM

## N#Cc1ccc2c(c1)CCc1cc(C(=O)O)sc1-2
[1]; [3]
  IC50: > 2000 nM
[2]; class symbols
  EC50: < 1000 nM

## Cc1cc(C)c2c(c1)OCc1cc(C(=O)O)sc1-2
[1]; [4]
  IC50: > 2000 nM
[2]; class symbols
  EC50: < 50 nM

## NC(=O)c1cc2c(s1)-c1cc(Cl)c(C(F)(F)F)cc1OC2
[1]; [4]
  IC50: > 2000 nM
[2]; class symbols
  EC50: < 500 nM

## N#Cc1ccc2c(c1)-c1sc(C(=O)O)cc1CC2
[1]; [3]
  IC50: > 2000 nM
[2]; class symbols
  EC50: < 1000 nM

## N#Cc1cc2c(cc1F)OCc1cc(C(=O)O)sc1-2
[1]; [4]
  IC50: > 2000 nM
[2]; class symbols
  EC50: < 100 nM

## COc1cc2c(cc1C#N)-c1sc(C(=O)O)cc1CC2
[1]; [4]
  IC50: > 2000 nM
[2]; [4]
  EC50: > 1000 nM

## CC(C)c1ccc2c(c1)-c1sc(C(N)=O)cc1CO2
[1]; [4]
  IC50: > 2000 nM
[2]; class symbols
  EC50: < 1000 nM

## CC(C)c1ccc2c(c1)-c1sc(C(=O)O)cc1CO2
[1]; [4]
  IC50: > 2000 nM
[2]; class symbols
  EC50: < 100 nM

## COc1ccc2c(c1)-c1sc(C(=O)O)cc1CS2(=O)=O
[1]; [4]
  IC50: > 2000 nM
[2]; class symbols
  EC50: < 500 nM

## COc1ccc2c(c1)-c1sc(C(=O)O)cc1CC2
[1]; [3]
  IC50: > 2000 nM
[2]; class symbols
  EC50: < 500 nM

## COCCNC(=O)c1cc2c(s1)-c1cc(F)ccc1OCC2
[1]; [3]
  IC50: > 2000 nM
[2]; class symbols
  EC50: < 500 nM

## COCCNC(=O)c1cc2c(s1)-c1ccccc1CCC2
[1]; [3]
  IC50: > 2000 nM
[2]; class symbols
  EC50: < 500 nM

## CCOC(=O)c1cc2c(s1)-c1cccc(OC)c1CC2
[1]; [3]
  IC50: > 2000 nM
[2]; class symbols
  EC50: < 500 nM

## CCOC(=O)c1cc2c(s1)-c1cc(OC)ccc1CC2
[1]; [3]
  IC50: > 2000 nM
[2]; [3]
  EC50: > 1000 nM

## O=C(O)C1CN(C(=O)c2cc3c(s2)-c2ccc(Cl)c(Cl)c2OC3)CC1c1ccccc1F (racemic)
[1]; class symbols
  IC50: < 50 nM
[2]; class symbols
  EC50: < 50 nM

## Cc1cc(C)c2c(c1)-c1sc(C(=O)NCC(=O)O)cc1CC2 [2-(6,8-dimethyl-4,5-dihydronaphtho[1,2-b]thiophene-2-carboxamido)acetic acid]
[1]; class symbols
  IC50: < 1000 nM
[2]; class symbols
  EC50: < 100 nM

## Nc1c(C(=O)O)sc2c1CSc1ccccc1-2 [3-amino-4H-thieno[3,2-c]thiochromene-2-carboxylic acid]
[1]; class symbols
  IC50: < 1000 nM
[2]; class symbols
  EC50: < 50 nM

## NC(=O)c1cc2c(s1)-c1ccccc1OC2 [4H-thieno[3,2-c]chromene-2-carboxamide]
[1]; class symbols
  IC50: < 50 nM
[2]; class symbols
  EC50: < 50 nM

## O=C(O)c1cc2c(s1)-c1cc(F)cc(F)c1S(=O)(=O)C2 [6,8-difluoro-4H-thieno[3,2-c]thiochromene-2-carboxylic acid 5,5-dioxide]
[1]; class symbols
  IC50: < 1000 nM
[2]; class symbols
  EC50: < 500 nM

## O=C(O)c1cc2c(s1)-c1cc(F)cc(F)c1[S+]([O-])C2 (stereo not drawn) [6,8-difluoro-4H-thieno[3,2-c]thiochromene-2-carboxylic acid 5-oxide]
[1]; [3]
  IC50: > 2000 nM
[2]; class symbols
  EC50: < 500 nM

## Cc1cc(C)c2c(c1)-c1sc(C(N)=O)cc1CC2 [6,8-dimethyl-4,5-dihydronaphtho[1,2-b]thiophene-2-carboxamide]
[1]; class symbols
  IC50: < 1000 nM
[2]; class symbols
  EC50: < 50 nM

## NC(=O)c1cc2c(s1)-c1c(F)ccc(F)c1SC2 [6,9-difluoro-4H-thieno[3,2-c]thiochromene-2-carboxamide]
[1]; class symbols
  IC50: < 50 nM
[2]; class symbols
  EC50: < 50 nM

## O=C(O)c1cc2c(s1)-c1cccc(F)c1OC2 [6-fluoro-4H-thieno[3,2-c]chromene-2-carboxylic acid]
[1]; class symbols
  IC50: < 1000 nM
[2]; class symbols
  EC50: < 50 nM

## NC(=O)c1cc2c(s1)-c1c(F)cc(F)cc1OC2 [7,9-difluoro-4H-thieno[3,2-c]chromene-2-carboxamide]
[1]; class symbols
  IC50: < 50 nM
[2]; class symbols
  EC50: < 50 nM

## COc1ccc2c(c1)CCc1cc(C(=O)O)sc1-2 [7-methoxy-4,5-dihydronaphtho[1,2-b]thiophene-2-carboxylic acid]
[1]; class symbols
  IC50: < 2000 nM
[2]; class symbols
  EC50: < 50 nM

## NCCNC(=O)c1cc2c(s1)-c1ccccc1CC2 [N-(2-aminoethyl)-4,5-dihydronaphtho[1,2-b]thiophene-2-carboxamide]
[1]; class symbols
  IC50: < 2000 nM
[2]; class symbols
  EC50: < 500 nM

## O=C(NCCO)c1cc2c(s1)-c1ccccc1CC2 [N-(2-hydroxyethyl)-4,5-dihydronaphtho[1,2-b]thiophene-2-carboxamide]
[1]; class symbols
  IC50: < 1000 nM
[2]; class symbols
  EC50: < 50 nM

## CCOC(=O)c1cc2c(s1)-c1ccc(C)c(C#N)c1CC2 [ethyl 6-cyano-7-methyl-4,5-dihydronaphtho[1,2-b]thiophene-2-carboxylate]
[1]; class symbols
  IC50: < 50 nM
[2]; class symbols
  EC50: < 50 nM

## CCOC(=O)c1cc2c(s1)-c1ccc(OC)cc1CC2 [ethyl 7-methoxy-4,5-dihydronaphtho[1,2-b]thiophene-2-carboxylate]
[1]; [3]
  IC50: > 2000 nM
[2]; class symbols
  EC50: < 500 nM
